Assay results from ChEMBL document CHEMBL3526091, “Pharmacokinetics, metabolism, and excretion of the glycogen synthase kinase-3 inhibitor LY2090314 in rats, dogs, and humans: a case study in rapid clearance by extensive metabolism with low circulating metabolite exposure” (Drug Metab Dispos, 2013).

Columns and labels:
Conditions in all cases: in vivo
[1] = Drug recovery in bile duct-cannulated Sprague-Dawley rat assessed as radioactivity in bile during 0 to 12 hrs treated with 5 mg/kg, iv LY2090314 for 30 mins; type: ADME, organism-based; set-up: dose 5 mg/kg, dosed compound name [14C]LY2090314, route intravenous
Plasma [2] = test: Drug recovery in beagle dog plasma assessed as radiochemical peak area treated with 5 mg/kg, iv LY2090314 for 30 mins after 0.5 hrs by radio analysis; type: ADME, organism-based, Canis lupus familiaris; set-up: dose 5 mg/kg, dosed compound name [14C]LY2090314, route intravenous
Plasma [3] = test: Drug recovery in beagle dog plasma assessed as radiochemical peak area treated with 5 mg/kg, iv LY2090314 for 30 mins after 2 hrs by radio analysis; type: ADME, organism-based, Canis lupus familiaris; set-up: dose 5 mg/kg, dosed compound name [14C]LY2090314, route intravenous
[4] = Drug recovery in bile duct-intact beagle dog assessed as radioactivity in feces during 0 to 48 hrs treated with 5 mg/kg, iv LY2090314 for 30 mins; type: ADME, organism-based, Canis lupus familiaris; set-up: dose 5 mg/kg, dosed compound name [14C]LY2090314, route intravenous
[5] = Drug recovery in po dosed mouse feces; type: ADME, organism-based; set-up: dosed compound name Ruboxistaurin
[6] = Drug recovery in po dosed rat feces; type: ADME, organism-based; set-up: dosed compound name Ruboxistaurin
[7] = Drug recovery in po dosed dog feces; type: ADME, organism-based, Canis lupus familiaris; set-up: dosed compound name Ruboxistaurin
[8] = Drug recovery in po dosed human feces; type: ADME, organism-based; set-up: dosed compound name Ruboxistaurin
[9] = Drug recovery in po dosed mouse urine; type: ADME, organism-based; set-up: dosed compound name Ruboxistaurin
[10] = Drug recovery in po dosed rat urine; type: ADME, organism-based; set-up: dosed compound name Ruboxistaurin
[11] = Drug recovery in po dosed dog urine; type: ADME, organism-based, Canis lupus familiaris; set-up: dosed compound name Ruboxistaurin
[12] = Drug recovery in po dosed human urine; type: ADME, organism-based; set-up: dosed compound name Ruboxistaurin
[13] = Drug recovery in po dosed rat bile; type: ADME, organism-based; set-up: dosed compound name Ruboxistaurin

NC(=O)N1CCn2cc(C3=C(c4cnc5ccccn45)C(=O)NC3=O)c3cc(F)cc(c32)C1
Compound recovery [1]: 4.15% | Compound recovery (Plasma [2]): 0.1% | Compound recovery (Plasma [3]): 0%

O=C(O)CCNC(=O)N1CCn2cc(C3=C(c4cnc5ccccn45)C(=O)NC3=O)c3cc(F)cc(c32)C1
Compound recovery [1]: 0%

O=C1NC(=O)C(c2c[n+](O[C@@H]3O[C@H](C(=O)O)[C@@H](O)[C@H](O)[C@H]3O)c3ccccn23)=C1c1cn2c3c(cc(F)cc13)CN(C(=O)N1CCCCC1)CC2
Compound recovery [4]: 5.42% | Compound recovery (Plasma [2]): 12.66% | Compound recovery (Plasma [3]): 18.81%

O=C(CCNC(=O)N1CCn2cc(C3=C(c4cnc5ccccn45)C(=O)NC3=O)c3cc(F)cc(c32)C1)NCCS(=O)(=O)O
Compound recovery [1]: 6.76%

CN(C)C[C@@H]1CCn2cc(c3ccccc32)C2=C(C(=O)NC2=O)c2cn(c3ccccc23)CCO1 [RUBOXISTAURIN]
Radiolabel recovery [5]: 83% | Radiolabel recovery [6]: 83% | Radiolabel recovery [7]: 83% | Radiolabel recovery [8]: 83% | Radiolabel recovery [9]: <= 4% | Radiolabel recovery [10]: <= 4% | Radiolabel recovery [11]: <= 4% | Radiolabel recovery [12]: <= 4% | Radiolabel recovery [13]: 59%
